# Experimental data taken from the RepoRT retention time repository.
# Test: HILIC, Waters ACQUITY UPLC BEH Amide, 100 × 2.1 mm, 1.7 µm; A: water + 0.125% formic acid + 10 mM ammonium formate; B: 5% water + 95% acetonitrile + 0.125% formic acid + 10 mM ammonium formate; gradient (min/%B) 0/100 2/100 7.7/70 9.5/40 10.25/30 12.75/100 17/100
# Settings: stereoisomer not certain
row,Structure (SMILES),LC retention time
1,N=C1NC(=O)C(c2ccccc2)O1 (stereo not given) [Pemoline],1.39 min
2,CC(C)=CCN1CCC2(C)c3cc(O)ccc3CC1C2C (stereo not given) [Pentazocine],2.65 min
3,CC(=O)CCCCn1c(=O)c2c(ncn2C)n(C)c1=O [Pentoxifylline],1.09 min
4,CCCN1CC(CSC)CC2c3cccc4[nH]cc(c34)CC21 (stereo not given) [Pergolide],2.41 min
5,COc1cc(-c2[o+]c3cc(O)cc(O)c3cc2OC2OC(CO)C(O)C(O)C2O)cc(O)c1O (stereo not given) [Petunidin-3-glucoside],4.47 min
6,CC1C(c2ccccc2)OCCN1C (stereo not given) [Phendimetrazine],2.52 min
7,NCCc1ccccc1 [Phenethylamine],4.87 min
8,CC1NCCOC1c1ccccc1 (stereo not given) [Phenmetrazine],4.04 min
9,NC(=O)OCCCc1ccccc1 [Phenprobamate],1.01 min
10,CC(C)(N)Cc1ccccc1 [Phentermine],6.23 min
11,NCC(O)c1ccccc1 (stereo not given) [Phenylethanolamine],5.51 min
12,CC(N)C(O)c1ccccc1 (stereo not given) [Phenylpropanolamine],5.29 min
13,Oc1cc(O)cc(O)c1 [Phloroglucinol],1.15 min
14,C=C(OP(=O)(O)O)C(=O)O [Phosphoenolpyruvic acid],9.05 min
15,O=C(O)CP(=O)(O)O [Phosphonoacetic acid],9.73 min
16,CNC(=O)Oc1ccc2c(c1)C1(C)CCN(C)C1N2C (stereo not given) [Physostigmine],3.17 min
17,CCCCCCCCCCCCCCC(O)C(O)C(N)CO (stereo not given) [Phytosphingosine],5.18 min
18,CC(C)(O)C1C2OC(=O)C1C1(O)CC3OC34C(=O)OC2C14C (stereo not given) [Picrotin],1.21 min

row,Structure (SMILES),LC retention time
1,CC(N=C(NC#N)Nc1ccncc1)C(C)(C)C (stereo not given) [Pinacidil],1.49 min
2,O=C(O)C1CCCCN1 (stereo not given) [Pipecolic acid],7.83 min
3,NCc1[nH]cc(CCC(=O)O)c1CC(=O)O [Porphobilinogen],7.4 min
4,CCC(C)C(=O)OC1CC(O)C=C2C=CC(C)C(CCC(O)CC(O)CC(=O)O)C21 (stereo not given) [Pravastatin],1.8 min
5,O=C1CN=C(c2ccccc2)c2cc(Cl)ccc2N1CC1CC1 [Prazepam],1.07 min
6,O=C(O)C1CC(O)CN1C(=O)C1CCCN1 (stereo not given) [Proline-hydroxyproline],8.6 min
7,O=C(O)C1CCCN1 (stereo not given) [Proline],7.83 min
8,CCC(=O)Nc1ccc(Cl)c(Cl)c1 [Propanil],1.08 min
9,CCC(=O)OC(CC(=O)[O-])C[N+](C)(C)C (stereo not given) [Propionylcarnitine],6.41 min
10,CCC(=O)OC(Cc1ccccc1)(c1ccccc1)C(C)CN(C)C (stereo not given) [Propoxyphene],2.01 min
11,c1ncc2[nH]cnc2n1 [Purine],2.44 min
12,NCCCCN [Putrescine],9.3 min
13,CCOC(=O)COc1cc(-c2nn(C)c(OC(F)F)c2Cl)c(F)cc1Cl [Pyrafluefen-ethyl],1.02 min
14,c1ccncc1 [Pyridine],6.63 min
15,Cc1ncc(COP(=O)(O)O)c(C=O)c1O [Pyridoxal-5-phosphate],7.7 min
16,OCC1OC(OCC2OC(OC3(CO)OC(CO)C(O)C3O)C(O)C(O)C2O)C(O)C(O)C1O (stereo not given) [Raffinose],9.17 min
17,CNC(=C[N+](=O)[O-])NCCSCc1ccc(CN(C)C)o1 [Ranitidine],5.18 min
18,CC(C=CC1=C(C)CCCC1(C)C)=CC=CC(C)=CC(=O)O [Retinoic acid],1.11 min

# The remaining lines, values ahead:
row,LC retention time,Structure (SMILES)
1,2.49 min,CC1COc2c(C3(N)CC3)c(F)cc3c(=O)c(C(=O)O)cn1c23 (stereo not given) [Pazufloxacin]
2,3.65 min,CCn1cc(C(=O)O)c(=O)c2cc(F)c(N3CCN(C)CC3)cc21 [Pefloxacin]
3,6.71 min,Nc1nc2c(ncn2CCC(CO)CO)c(=O)[nH]1 [Penciclovir]
4,2.14 min,O=C1C2CCCCC2C(=O)N1CCCCN1CCN(c2nsc3ccccc23)CC1 (stereo not given) [Perospirone]
5,4.45 min,NNCCc1ccccc1 [Phenelzine]
6,1.02 min,CC(=O)OCCc1ccccc1 [Phenethylacetate]
7,5.4 min,O=CCc1ccccc1 [Phenylacetaldehyde]
8,6.03 min,NC(=O)CCC(NC(=O)Cc1ccccc1)C(=O)O (stereo not given) [Phenylacetylglutamine]
9,2.88 min,O=C(O)CNC(=O)Cc1ccccc1 [Phenylacetylglycine]
10,7.05 min,O=P(O)(O)Oc1ccccc1 [Phenylphosphoric acid]
11,1.5 min,O=C(CCc1ccc(O)cc1)c1c(O)cc(O)cc1O [Phloretin]
12,1.34 min,O=C(c1ccccc1)c1c(O)cc(O)cc1O [Phlorobenzophenone]
13,9.72 min,NC(Cc1ccc(OP(=O)(O)O)cc1)C(=O)O (stereo not given) [Phosphotyrosine]
14,1.15 min,O=C(O)c1ccccc1C(=O)O [Phthalic acid]
15,7.3 min,O=C1CCC(C(=O)N2CSCC2C(=O)O)N1 (stereo not given) [Pidotimod]
16,2.23 min,CCC1C(=O)OCC1Cc1cncn1C (stereo not given) [Pilocarpine]
17,1.11 min,CCc1ccc(CCOc2ccc(CC3SC(=O)NC3=O)cc2)nc1 (stereo not given) [Pioglitazone]
18,1.1 min,O=C(C=CC=Cc1ccc2c(c1)OCO2)N1CCCCC1 [Piperine]
19,3.5 min,Cc1nc2ccccn2c(=O)c1CCN1CCC(C(=O)c2ccc(F)cc2)CC1 [Pirenperone]
20,1.02 min,CN1C(C(=O)Nc2ccccn2)=C(O)c2ccccc2S1(=O)=O [Piroxicam]
21,1.36 min,O=C(O)CC(O)CC(O)C=Cc1c(C2CC2)nc2ccccc2c1-c1ccc(F)cc1 (stereo not given) [Pitavastatin]
22,2.33 min,CN1CCC(=C2c3ccccc3CCc3sccc32)CC1 [Pizotifen]
23,5.7 min,CCCNC1CCc2nc(N)sc2C1 (stereo not given) [Pramipexole]
24,3.75 min,COc1cc2nc(N3CCN(C(=O)c4ccco4)CC3)nc(N)c2cc1OC [Prazosin]
25,8.75 min,NC(=O)CCC(NC(=O)C1CCCN1)C(=O)O (stereo not given) [Pro-Gln]
26,4.61 min,CNNCc1ccc(C(=O)NC(C)C)cc1 [Procarbazine]
27,2.56 min,CN1CCN(CCCN2c3ccccc3Sc3ccc(Cl)cc32)CC1 [Prochlorperazine]

row,LC retention time,Structure (SMILES)
1,0.97 min,CC(=O)C1CCC2C3CCC4=CC(=O)CCC4(C)C3CCC12C (stereo not given) [Progesterone]
2,0.98 min,COc1cc(C=Cc2ccc(O)cc2)cc(OC)c1 [Pterostilbene]
3,2.18 min,Cc1ncc(CO)c(C=O)c1O [Pyridoxal]
4,8.1 min,Cc1ncc(CO)c(CN)c1O [Pyridoxamine]
5,3.78 min,Cc1ncc(CO)c(CO)c1O [Pyridoxine]
6,8.71 min,O=C1CCC(C(=O)O)N1 (stereo not given) [Pyroglutamic acid]
7,5.66 min,O=C(O)c1ccc[nH]1 [Pyrrole-2-carboxylic acid]
8,4.61 min,CC(=O)OCC1OC(Oc2c(-c3ccc(O)c(O)c3)oc3cc(O)cc(O)c3c2=O)C(O)C(O)C1O (stereo not drawn) [Quercetin-3-O-beta-glucopyranosyl-6'-acetate]
9,4.7 min,CC1OC(Oc2c(-c3ccc(O)c(O)c3)oc3cc(O)cc(O)c3c2=O)C(O)C(O)C1O (stereo not given) [Quercetin-3-ramnoside]
10,2.54 min,OCCOCCN1CCN(C2=Nc3ccccc3Sc3ccccc32)CC1 [Quetiapine]
11,2.16 min,O=C(O)c1cccnc1C(=O)O [Quinolinic acid]
12,2.44 min,COCCCOc1ccnc(CS(=O)c2nc3ccccc3[nH]2)c1C (stereo not given) [Rabeprazole]
13,0.95 min,CC(=O)SCC(Cc1ccccc1)C(=O)NCC(=O)OCc1ccccc1 (stereo not given) [Racecadotril]
14,2.11 min,CCN1CCCC1CNC(=O)c1c(O)c(Cl)cc(Cl)c1OC (stereo not given) [Raclopride]
15,7.35 min,Cc1nc2ccc(CN(C)c3ccc(C(=O)NC(CCC(=O)O)C(=O)O)s3)cc2c(=O)[nH]1 (stereo not given) [Raltitrexed]
16,1.4 min,CCOC(=O)C(CCc1ccccc1)NC(C)C(=O)N1C(C(=O)O)CC2CCCC21 (stereo not given) [Ramipril]
17,2.79 min,COc1ccccc1OCC(O)CN1CCN(CC(=O)Nc2c(C)cccc2C)CC1 (stereo not given) [Ranolazine]
18,4.41 min,CC(Cc1ccccc1)(NC(=O)CN)c1ccccc1 (stereo not given) [Remacemide]
19,1.01 min,CCOc1cc(CC(=O)NC(CC(C)C)c2ccccc2N2CCCCC2)ccc1C(=O)O (stereo not given) [Repaglinide]
20,1.41 min,Oc1ccc(C=Cc2cc(O)cc(O)c2)cc1 [Resveratrol]
21,6 min,Cc1cc2nc3c(=O)[nH]c(=O)nc-3n(CC(O)C(O)C(O)CO)c2cc1C (stereo not given) [Riboflavin]
22,2.76 min,COC1C=COC2(C)Oc3c(C)c(O)c4c(O)c(c5c(c4c3C2=O)=NC2(CCN(CC(C)C)CC2)N=5)NC(=O)C(C)=CC=CC(C)C(O)C(C)C(O)C(C)C(OC(C)=O)C1C (stereo not given) [Rifabutin]
23,1.81 min,COC1C=COC2(C)Oc3c(C)c(O)c4c(O)c(c(C=NN5CCN(C6CCCC6)CC5)c(O)c4c3C2=O)NC(=O)C(C)=CC=CC(C)C(O)C(C)C(O)C(C)C(OC(C)=O)C1C (stereo not given) [Rifapentine]
24,1.18 min,COC1C=COC2(C)Oc3c(C)c(O)c4c(O)c(c5c(nc6cc(C)ccn65)c4c3C2=O)NC(=O)C(C)=CC=CC(C)C(O)C(C)C(O)C(C)C(OC(C)=O)C1C (stereo not given) [Rifaximin]
25,1.03 min,Nc1nc2ccc(OC(F)(F)F)cc2s1 [Riluzole]
26,2.87 min,CC1CN(CCCn2c3ccccc3c3ccccc32)CC(C)N1 (stereo not given) [Rimcazole]
27,3.52 min,Cc1nc2n(c(=O)c1CCN1CCC(c3noc4cc(F)ccc34)CC1)CCCC2 [Risperidone]
